According to US12492208B2, “Crystal of pyrimidine compound” (TAIHO PHARMACEUTICAL CO., LTD., priority 2020, dated 2025):

Columns and labels:
SK-BR-3 cells = experiment: Growth inhibitory activity against HER2 expressing cell line; assay type: cell-based; details: Homo sapiens, SK-BR-3, 72 h; 3 days, CellTiter-Glo 2.0
Experimental: SK-BR-3 cells as a HER2 overexpressing human breast cancer cell line were suspended in a McCoy's 5a medium (manufactured by Life Technologies) supplemented with 10% fetal bovine serum. The cell suspension was seeded in each well of a 384-well flat-bottom microplate, and was then cultured in a 5% carbon dioxide gas-containing culture vessel at 37° C. for 1 day. Thereafter, the compound (I) obtained according to the method in Synthesis Example 1 was dissolved in DMSO, and the compound was diluted to 500 times the final concentration in DMSO. The compound in the DMSO solution was diluted with DMSO solution or the medium used in the suspension of the cells, and the obtained solution was then added to each well of the culture plate so that the final concentration of DMSO was 0.2%. The obtained mixture was further cultured in the 5% carbon dioxide gas-containing culture vessel at 37° C. for 3 days. After completion of the culture for 3 days in the presence of the compound, the cells were counted using CellTiter-Glo 2.0 (manufactured by Promega), and the growth inhibition percentage was then calculated according to the following equation. The concentration of the compound, in which the growth of the cells can be inhibited by 50%, was defined as IC50 (nM). […]

Ba/F3-HER2insYVMA cells = experiment: Growth inhibitory activity against HER2 exon 20 insertion mutant expressing cell line; assay type: cell-based; details: Mus musculus, 72 h, 3 days, CellTiter-Glo 2.0, read-out: HER2ex20insYVMA cell growth inhibitory activity IC50 value
Experimental: Growth inhibitory activity against the HER2 exon 20 insertion mutant was measured using Ba/F3 cells that were a mouse B lymphocyte precursor cell line, into which a human HER2 exon 20 insertion mutant gene had been introduced. The Ba/F3 cells were maintained in an RPMI-1640 medium (Thermo Fisher Scientific) supplemented with 10% fetal bovine serum (FBS), 100 U/mL penicillin, 100 μg/mL streptomycin (Thermo Fisher Scientific) and 1 ng/mL mouse interleukin-3 (mIL-3) (CST).
Upon evaluation of cell growth inhibitory activity, the Ba/F3-HER2insYVMA cells were suspended in an RPMI-1640 medium supplemented with 10% FBS, 100 U/mL penicillin, and 100 μg/mL streptomycin. The cell suspension was seeded in each well of a 96-well flat-bottom microplate, and was then cultured in a 5% carbon dioxide gas-containing culture vessel at 37° C. for 1 day. The compound (I) obtained according to the method in Synthesis Example 1 was dissolved in DMSO, and was then diluted with DMSO or the medium used in the suspension of the cells. The obtained solution was then added to each well of the culture plate, so that the final concentration of DMSO became 0.2%. […] After completion of the culture for 3 days in the presence of the compound, the cells were counted using CellTiter-Glo 2.0 (manufactured by Promega), and the growth inhibition percentage was then calculated according to the following equation. […]

Which IC50 (SK-BR-3 cells) does the source give for `C=CC(=O)N1C[C@H](n2c(C#CC3CC3)c(C(=O)N[C@H](C)c3ccccc3)c3c(N)ncnc32)C[C@@H]1C` [compound (I), 7-((3R,5S)-1-acryloyl-5-methylpyrrolidin-3-yl)-4-amino-6-(cyclopropylethynyl)-N—((R)-1-phenylethyl)-7H-pyrrolo[2,3-d]pyrimidine-5-carboxamide] here?
Its IC50 is 0.0066 µM.

What about the IC50 (Ba/F3-HER2insYVMA cells) of the same molecule?
Its IC50 is 0.029 µM.
